Data on one molecule can be found in patent US12409159B2, “3-hydroxybutyrate alone or in combination for use in the treatment of critical care treatment” (KATHOLIEKE UNIVERSITEIT LEUVEN, priority 2016, dated 2025).

The test system of data set [1] is mouse model of prolonged critical illness evoked by sepsis (cecal ligation and puncture). Nature of the data set: Ex vivo force measurement of isolated extensor digitorum longus (EDL) muscle, mouse model of prolonged critical illness evoked by sepsis. The format is in vivo, mice. The text has this:
Mice experiment 2: We examined muscle force ex vivo in lean and diet-induced obese CLP mice. […] Mice were randomly allocated to “healthy control” or “CLP.” As in experiment 1 we had observed that muscle wasting occurred irrespective of feeding, we now only compared parenterally fed with pair-fed lean (n=17) and obese (n=15) healthy mice. Until day 5, 15/18 lean and 15/18 obese CLP mice survived. After 5 days, animals were deeply anesthetized and the m. extensor digitorum longus (EDL) was carefully dissected from both hind limbs for ex vivo muscle force measurements.
(§1) We studied the effect of subcutaneous administration of D,L-3-hydroxybutyrate sodium salt on muscle wasting and weakness in a validated mouse model of prolonged critical illness evoked by sepsis (cecal ligation and puncture followed by resuscitation and intensive medical care). The intervention was studied in the parenterally fed and in the fasted state.
Muscle function was quantified in isolated extensor digitorum longus (EDL) muscle. Critical illness in parenterally fed mice (PN) reduced the absolute maximal force generated by EDL to 57% of healthy controls (p<0.0001) (FIG. 9). […]
(§2) Muscle mass and function was quantified in isolated extensor digitorum longus (EDL) muscle. […]

Data set [2] shares this test system. Nature of the data set: 5-day mortality in prolonged critically ill mice. The format is in vivo.
Text: FIG. 10. Effect of 3-hydroxybutyrate injections on 5-day mortality in prolonged critically ill mice. Black line, healthy control mice (15/15 survivors); gray line, parenterally fed critically ill mice (17/20 survivors); dash dot line; parenterally fed critically ill mice receiving 3-hydroxybutyrate (17/21 survivors); dotted line, fasted critically ill mice receiving 3-hydroxybutyrate (14/22 survivors). [PN=parenteral nutrition; 3HB=3-hydroxybutyrate].
as §1
Muscle function was quantified in isolated extensor digitorum longus (EDL) muscle. Critical illness in parenterally fed mice (PN) reduced the absolute maximal force generated by EDL to 57% of healthy controls (p<0.0001) (FIG. 9). However, when parenterally fed critically ill mice received subcutaneous twice daily a bolus of 75 mg of D,L-3-hydroxybutyrate sodium salt (PN+3HB), maximal muscle force improved dramatically to 83% of healthy controls (p<0.0001) (FIG. 9).

The test system is the same in data set [3]. Nature of the data set: Muscle wasting: weight of isolated skeletal muscles (EDL, tibialis anterior) in prolonged critically ill mice. Conditions: Example 7, first experiment, fasted critically ill mice. The format is in vivo. The procedure:
To control for potential illness- or resuscitation-related changes in fluid content, dry weight of isolated tissues was obtained by a freeze-drying process. Myofiber cross-sectional area (CSA) was quantified on digital microscopy images of hematoxylin and eosin stained paraffin sections with in-house designed algorithms. In addition, the presence of myofiber degeneration, necrosis and inflammation was histologically evaluated. Triglyceride content of tissues was determined with a commercial colorimetric assay (triglyceride quantification kit, Abcam, Cambridge, UK).
as §1
Muscle wasting was evaluated by quantification of the dry weight of isolated skeletal muscles. Muscle weight of the EDL muscle decreased in all critically ill mice, irrespective of hydroxybutyrate treatment or nutritional regime (1.9±0.3 mg for PN, 2.1±0.3 mg for PN+3HB, and 2.0±0.4 mg for fasting+3HB as compared with 2.7±0.3 mg in healthy control mice; p<0.0001) (FIG. 11A). […]
as §2

Where a name gives a salt, the structure may show the parent alone.

In the case of `CC(O)CC(=O)O` (racemic) [D,L-3-hydroxybutyrate sodium salt], the “absolute maximal force generated by EDL, % of healthy controls” value in data set [1] (Example 7, first experiment, fasted critically ill mice (survivors), 3HB 75 mg subcutaneous bolus twice daily) was 33%. Moreover, the “effect on muscle weakness and muscle wasting (conclusion)” value in data set [1] (daily supplementation to parenterally fed mice, prolonged sepsis-induced critical illness) is given as “largely prevented muscle weakness but not muscle wasting”. In addition, the figures for the 5-day survivors in data set [2] (fasted critically ill mice) and in data set [2] (parenterally fed critically ill mice) were 14/22 and 17/21, respectively. Moreover, the risk of death result in data set [2] (fasted critically ill mice, 3HB 75 mg boluses twice daily) is “increased risk of death”. Also, the “dry weight of the EDL muscle” value in data set [3] (healthy controls 2.7±0.3 mg) worked out at 2.0 ± 0.4 mg. The “dry weight of the tibialis anterior muscle” value in data set [3] (healthy controls 12.4±1.3 mg) was found to be 8.4 ± 1.8 mg.
